These compounds were tested against T1, HIV-1 integrase (HIV-1 M:B_HXB2R, UniProt P04585) (assay: ELISA overall integration assay, biotin / digoxigenin labelled oligonucleotides). Settings: overall integration reaction; 10 mM MgCl2, 5 mM DTT, 20 mM HEPES pH 7.5, 5% PEG, 15% DMSO, 37 °C, 1 h.
T1 construct: gene gag-pol; WT integrase, cut from Gag-Pol polyprotein
Type: biochemical
Excerpt: ELISA overall integration assay, biotin / digoxigenin labelled oligonucleotides on HIV-1 integrase

**Q.** For `CC(=O)N1C(=O)C(=Nc2ccc(S(=O)(=O)Nc3nc(C)cc(C)n3)cc2)c2cc(Br)ccc21` [SPIII-5Br-AC], which “IC50 ^a (μM/ml)” value is on record?
**A.** > 250 μM/ml

**Q.** `Cc1cc(C)nc(NS(=O)(=O)c2ccc(N=C3C(=O)N(C(=O)c4ccccc4)c4ccc(Br)cc43)cc2)n1` [SPIII-5Br-BZ] was tested. Which “IC50 ^a (μM/ml)” value did it give?
**A.** > 250 μM/ml

**Q.** Which “IC50 ^a (μM/ml)” value does the source give for `CC(=O)N1C(=O)C(=Nc2ccc(S(=O)(=O)Nc3nc(C)cc(C)n3)cc2)c2cc(C)ccc21` [SPIII-5Me-AC, 4-(1-acetyl-5-methyl-2-oxoindolin-3-ylideneamino)-N-(4,6-dimethylpyrimidin-2-yl)benzenesulfonamide] here?
**A.** 53.62±11.67 μM/ml

From paper PMC3040873, “Design, Synthesis and antiHIV activity of Novel Isatine-Sulphonamides” (Indian Journal of Pharmaceutical Sciences, 2008)
